Where a SMILES comes first, the peptide text is derived from it. [ ]: non-standard residue; d: D form. Dmt = Cc1cc(O)cc(C)c1C[C@H](N)C(=O)O
Experiments:
[1] = tested on: several mammalian cell types; conditions: cited from earlier work
[2] = 0.01-0.25 mg/kg/hr IV, five days
Protocol: Control mitochondrial myopathy subjects (Group 4) received equal volumes of saline solution administered for two hours. All groups were treated for five consecutive days. The demographics of the subjects are disclosed in Table 5.

| Compound | penetration of the plasma membrane [1] | serious adverse events [2] | vital signs, electrocardiograms, clinical laboratory findings [2] |
| --- | --- | --- | --- |
| 2′,6′-Dmt-D-Arg-Phe-Lys-NH2 | readily penetrates the plasma membrane of several mammalian cell types in an energy-independent manner |  |  |
| Cc1cc(O)cc(C)c1C[C@H](NC(=O)[C@H](N)CCCNC(=N)N)C(=O)N[C@@H](CCCCN)C(=O)N[C@@H](Cc1ccccc1)C(N)=O [D-Arg-2′,6′-Dmt-Lys-Phe-NH2] (H-[dR][Dmt]KF-NH2) |  | None of the test subjects exhibited any serious adverse events | no significant trends changes |
